The term IC50 denotes the midpoint of a concentration-inhibition curve. A higher IC50 goes with weaker potency in that assay.

Experiment [1] relates to Mus musculus. As to the kind of experiment: In Vivo evaluation of the Compound administered through icv for tonicity in presence along with the antagonist NBQX in mice. It is filed as functional.
Experiment [2] has as its system Mus musculus. As to the kind of experiment: In Vivo evaluation of the Compound administered through icv for the Clonic seizure presence along with […] in mice. It is filed as functional.
Experiment [3] has as its system Mus musculus. As to the kind of experiment: In Vivo evaluation of the Compound administered through icv for tonicity in presence along with […] in mice. It is filed as functional.
Experiment [4] addresses Glutamate receptor ionotropic, AMPA (Rattus norvegicus, UniProt P19490+P19491+P19492+P19493).
Description: Compound was evaluated for binding affinity at Ionotropic glutamate receptor AMPA using [3H]AMPA as radioligand
Experiment [5] addresses Glutamate NMDA receptor. As to the kind of experiment: Compound was evaluated for binding affinity at N-methyl-D-aspartate glutamate receptor using [3H]CPP as radioligand. It is filed as protein-complex assay.
Experiment [6] concerns Mus musculus. As to the kind of experiment: In Vivo evaluation of the Compound administered through icv for the tonicity in presence along with the antagonist GYKI 52466 in mice. In kind it is functional.
Experiment [7] deals with Mus musculus. As to the kind of experiment: In Vivo evaluation of the Compound administered through icv for the Clonic seizure presence alone in mice. In kind it is functional.
Experiment [8] has as its system Mus musculus. As to the kind of experiment: In Vivo evaluation of the Compound administered through icv for the Clonic seizure presence along with the antagonist GYKI 52466 in mice. In kind it is functional.
Experiment [9] has as its system Mus musculus. As to the kind of experiment: In Vivo evaluation of the Compound administered through icv for the Clonic seizure presence along with the antagonist NBQX in mice. It is filed as functional.
Experiment [10] has as its target Glutamate receptor ionotropic, kainate. As to the kind of experiment: Compound was evaluated for binding affinity at Ionotropic glutamate receptor kainate using [3H]- KAIN as radioligand. It is filed as protein-complex assay.
Experiment [11] concerns Mus musculus. As to the kind of experiment: In Vivo evaluation of the Compound administered through icv for the Clonic seizure presence along with […] in mice. (+/-95% confidence limits within parenthesis); nM per mouse. It is filed as functional.
Experiment [12] is described as follows: Potency ratio (the ratio between the CD50 value of the drug in the presence of antagonist versus its CD50 value) for compound in presence of GYKI 52466; range 1.4-2.1. In kind it is functional.
A short description of experiment [13]: Potency ratio (the ratio between the CD50 value of the drug in the presence of antagonist versus its CD50 value) for compound in presence of CPP; range 2.9-3.4. In kind it is functional.
The nature of experiment [14]: Potency ratio (the ratio between the CD50 value of the drug in the presence of antagonist versus its CD50 value) for compound in presence of CPP compound in presence of NBQX; range 1.1-1.3. In kind it is functional.
The subject of experiment [15] is Mus musculus. As to the kind of experiment: In Vivo evaluation of the Compound administered through icv for the tonicity in presence alone in mice. It is filed as functional.
Experiment [16] deals with Mus musculus. As to the kind of experiment: In Vivo evaluation of the Compound administered through icv for the Clonic seizure presence along with the antagonist GYKI 52466 in mice. In kind it is functional.
Experiment [17] deals with Mus musculus. As to the kind of experiment: In Vivo evaluation of the Compound administered through icv for tonicity in presence along with the antagonist GYKI 52466 in mice. In kind it is functional.
For experiment [18], the system named is Mus musculus. As to the kind of experiment: In Vivo evaluation of the Compound administered through icv for tonicity in presence of the compound along with the antagonist NBQX in mice. It is filed as functional.
In experiment [19] the test system is Mus musculus. As to the kind of experiment: In Vivo evaluation of the Compound administered through icv for the Clonic seizure presence of the compound along with the antagonist NBQX in mice. It is filed as functional.
In experiment [20] the test system is Mus musculus. As to the kind of experiment: In Vivo evaluation of the Compound administered through icv for tonicity in presence alone in mice. In kind it is functional.
Experiment [21] relates to Mus musculus. As to the kind of experiment: In Vivo evaluation of the Compound administered through icv for tonicity in presence alone in mice. It is filed as functional.
In experiment [22] the test system is Mus musculus. As to the kind of experiment: In Vivo evaluation of the Compound administered through icv for the for tonicity in presence of the compound along with the antagonist NBQX in mice. It is filed as functional.
The subject of experiment [23] is Mus musculus. As to the kind of experiment: In Vivo evaluation of the Compound administered through icv for the for tonicity in presence along with the antagonist GYKI 52466 in mice. It is filed as functional.
Experiment [24] has as its system Mus musculus. As to the kind of experiment: In Vivo evaluation of the Compound administered through icv for the for tonicity in presence along with […] in mice. It is filed as functional.
For experiment [25], the system named is Mus musculus. As to the kind of experiment: In Vivo evaluation of the Compound administered through icv for the Clonic seizure presence of the compound along with the antagonist NBQX in mice. It is filed as functional.

As for `O=C(O)C1=NO[C@H]2CN[C@H](C(=O)O)[C@@H]12`, the CD50 in experiment [1] amounted to 0.99 nM; in experiment [2], 0.039 nmol/mouse; in experiment [3], 0.19 nmol; in experiment [6] it was 1.26 nM; in [7], 0.027 nmol/mouse; in experiment [8] it was 0.5 nM. The CD50 in [9] is recorded as 0.43 nM. For the same compound, the IC50 in experiment [4] is 1.3 µM; in [5], > 100 µM; in [10], 0.48 µM.
For the compound `O=C(O)C1=NO[C@H]2[C@@H]1CN[C@@H]2C(=O)O`, the CD50 in experiment [11] stood at 24.82 nM; in [7] it was 8.48 nmol/mouse; in [15], 39.9 nM; in [16] it was 17.5 nmol/mouse. Also, the Ratio in experiment [12] worked out at 1.4; in experiment [13], 2.9; in [14], 1.1. Further, the 50% inhibitory concentration (IC50) in [4] turned out to be 24.7 µM; in experiment [5], 23 µM; in [10] it was 48 µM.
With `C=C(C)[C@H]1CN[C@H](C(=O)O)[C@H]1CC(=O)O` [KAINIC ACID], the CD50 in experiment [17] was determined as 0.232 nmol/mouse; in experiment [2], 0.024 nmol/mouse; in [18], 0.468 nmol/mouse; in experiment [3], 0.071 nmol/mouse; in experiment [19] it was 0.094 nmol; in experiment [7], 0.015 nmol/mouse. Moreover, the CD50 in experiment [20] came out at 0.032 nmol/mouse; in [16] it was 0.071 nmol/mouse. Also, the IC50 in [5] was > 100 µM.
`Cc1onc(O)c1C[C@H](N)C(=O)O` [(S)-AMPA]: the CD50 in [21] is 2.9 nmol; in experiment [2], 2.69 nmol/mouse; in experiment [22], 15.7 nmol; in experiment [23] it was 16.1 nmol; in experiment [24], 3.18 nM; in [25] it was 6.7 nmol/mouse. Besides, the CD50 worked out at 1.76 nmol/mouse in experiment [7] and 7.61 nmol/mouse in [16].

These data come from ChEMBL document CHEMBL1131292, “Synthesis and pharmacology of a new AMPA-kainate receptor agonist with potent convulsant activity” (J Med Chem, 1998).
